Test results taken from ChEMBL document CHEMBL1201862, “PubChem BioAssay data set” (2004).
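Values below derive from 48-hour exposures of cells grown in 96-well plates, with endpoints linearly interpolated between the two concentrations bracketing the appropriate inhibition level. At the GI50, growth is halved.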 Activity calls are given as the source filed them. Rule as the data show it: active = GI50 up to about 1.1 µM and inactive = higher.

Assays:
Assay in all cases: NCI tumour cell line growth inhibition, 48 h
DLD-1 = test system: DLD-1
DMS-114 = test system: DMS-114
LXFL 529 = test system: LXFL 529
M19-MEL = test system: M19-MEL
RXF 631 = test system: RXF 631
SNB-78 = test system: SNB-78
XF498 = test system: XF498
HOP-18 = test system: HOP-18
KM-20L2 = test system: KM-20L2

SMILES | GI50 (DLD-1) | GI50 (DMS-114) | GI50 (LXFL 529) | GI50 (M19-MEL) | GI50 (RXF 631) | GI50 (SNB-78) | GI50 (XF498) | GI50 (HOP-18) | GI50 (KM-20L2)
C[C@]12CCC(=O)CC1CCCC2=O (stereo partly drawn) | > 100 µM (inactive) | > 100 µM (inactive) | > 100 µM (inactive) | > 100 µM (inactive) | > 100 µM (inactive) | > 100 µM (inactive) | > 100 µM (inactive) | – | –
CC(=O)OCCOCNC(=S)N/N=C(\C)c1cnc2ccccc2n1 | 26.2 µM (inactive) | 15.6 µM (inactive) | 30.8 µM (inactive) | 15.8 µM (inactive) | – | > 100 µM (inactive) | > 100 µM (inactive) | > 100 µM (inactive) | 16.3 µM (inactive)
Sc1nc(S)nc(Oc2ccc(Cl)c(Cl)c2)n1 | 27.1 µM (inactive) | 19.1 µM (inactive) | 34.9 µM (inactive) | 22.8 µM (inactive) | 16.3 µM (inactive) | 34.4 µM (inactive) | 25.4 µM (inactive) | 36.4 µM (inactive) | 33.6 µM (inactive)
CC1S(=O)(=O)OCCOS1(=O)=O | > 100 µM (inactive) | 39.2 µM (inactive) | > 100 µM (inactive) | > 100 µM (inactive) | 31.7 µM (inactive) | > 100 µM (inactive) | – | > 100 µM (inactive) | > 100 µM (inactive)
O=C1c2ccccc2CCCCCCCCCCC12OCCCO2 | 60.4 µM (inactive) | 12.2 µM (inactive) | 58.9 µM (inactive) | 36.6 µM (inactive) | – | 22.6 µM (inactive) | – | 47.9 µM (inactive) | 22.9 µM (inactive)
CP(=O)(CCSc1ccccc1)c1ccccc1 (stereo not drawn) | > 100 µM (inactive) | > 100 µM (inactive) | > 100 µM (inactive) | > 100 µM (inactive) | – | > 100 µM (inactive) | > 100 µM (inactive) | > 100 µM (inactive) | > 100 µM (inactive)
CCOC(=O)C1=C(NC)OCC1=O | – | > 100 µM (inactive) | > 100 µM (inactive) | > 100 µM (inactive) | > 100 µM (inactive) | > 100 µM (inactive) | > 100 µM (inactive) | – | > 100 µM (inactive)
FC(F)(F)c1nc(-c2ccccc2)oc1Sc1oc(-c2ccccc2)nc1C(F)(F)F | > 100 µM (inactive) | 40.3 µM (inactive) | > 100 µM (inactive) | > 100 µM (inactive) | – | > 100 µM (inactive) | 34.8 µM (inactive) | 73.6 µM (inactive) | > 100 µM (inactive)
CC#N.O[C@@H]1CCCC[C@@H]1O.O[C@@H]1CCCC[C@@H]1O.[TeH2] | 22.7 µM (inactive) | 24.4 µM (inactive) | 63.7 µM (inactive) | 25.1 µM (inactive) | 18.7 µM (inactive) | > 100 µM (inactive) | > 100 µM (inactive) | 27.5 µM (inactive) | 65.5 µM (inactive)
CN1C/C(=C\c2ccc(C(=O)O)cc2)C(=O)/C(=C/c2ccc(C(=O)O)cc2)C1 | > 100 µM (inactive) | > 100 µM (inactive) | > 100 µM (inactive) | > 100 µM (inactive) | > 100 µM (inactive) | > 100 µM (inactive) | > 100 µM (inactive) | > 100 µM (inactive) | > 100 µM (inactive)
O=c1cccccc1NCCCCCCNc1cccccc1=O | > 100 µM (inactive) | > 100 µM (inactive) | > 100 µM (inactive) | > 100 µM (inactive) | > 100 µM (inactive) | > 100 µM (inactive) | – | > 100 µM (inactive) | > 100 µM (inactive)
COc1cc([C@@H]2c3cc4c(cc3[C@@H](NC(=O)c3ccc(C#N)cc3)C3COC(=O)[C@@H]32)OCO4)cc(OC)c1O (stereo partly drawn) | 1.64 µM (inactive) | 0.315 µM (active) | 4.61 µM (inactive) | 1.26 µM (inactive) | – | 6.03 µM (inactive) | – | 55.1 µM (inactive) | 0.785 µM (active)
COc1ccc(C=O)c(NC(=O)C(C)C)c1 | – | 24.4 µM (inactive) | 44.9 µM (inactive) | 21 µM (inactive) | – | 66.1 µM (inactive) | 21.9 µM (inactive) | 39.7 µM (inactive) | 51.5 µM (inactive)
CCCCCC(=O)c1ccc2[nH]c3c(C)cc([N+](=O)[O-])c(C)c3c2c1 | – | > 100 µM (inactive) | – | > 100 µM (inactive) | – | > 100 µM (inactive) | > 100 µM (inactive) | – | –
CN(C)CC1(Cc2ccccc2)CC/C(=C\c2ccccc2)C1=O (stereo not drawn) | 27.6 µM (inactive) | 31.3 µM (inactive) | 37.2 µM (inactive) | 26.8 µM (inactive) | 29.3 µM (inactive) | 52.2 µM (inactive) | 80.9 µM (inactive) | > 100 µM (inactive) | 17.2 µM (inactive)
O=c1cc2ccccc2nn1Cc1ccccc1Cl | > 100 µM (inactive) | 67.6 µM (inactive) | – | > 100 µM (inactive) | – | > 100 µM (inactive) | 80.2 µM (inactive) | > 100 µM (inactive) | > 100 µM (inactive)
CC(=O)C(CN(C)C)C(c1ccccc1)c1c(O)c2ccccc2oc1=O (stereo not drawn) | > 100 µM (inactive) | 93.3 µM (inactive) | > 100 µM (inactive) | > 100 µM (inactive) | – | > 100 µM (inactive) | > 100 µM (inactive) | > 100 µM (inactive) | > 100 µM (inactive)
O=C(CC(=O)c1ccccc1)CC(O)(c1ccccc1)c1ccccc1 | 4.18 µM (inactive) | 2.06 µM (inactive) | 3.24 µM (inactive) | 3.12 µM (inactive) | – | 21 µM (inactive) | – | – | 5.25 µM (inactive)
COC(=O)[C@H](Cc1ccccc1)NC(=O)/C(=C/C(C)C)NC(=O)[C@H](CCSC)NC=O | > 100 µM (inactive) | > 100 µM (inactive) | > 100 µM (inactive) | > 100 µM (inactive) | – | – | > 100 µM (inactive) | > 100 µM (inactive) | > 100 µM (inactive)
CC(C)OC(=O)c1cc(NC(=O)C(C)(C)C)c(F)cc1Cl | – | > 100 µM (inactive) | > 100 µM (inactive) | > 100 µM (inactive) | > 100 µM (inactive) | – | > 100 µM (inactive) | > 100 µM (inactive) | > 100 µM (inactive)
COC1(Cc2ccccc2)C(=O)c2ccccc2N1C(C)=O (stereo not drawn) | > 100 µM (inactive) | > 100 µM (inactive) | > 100 µM (inactive) | > 100 µM (inactive) | > 100 µM (inactive) | > 100 µM (inactive) | > 100 µM (inactive) | > 100 µM (inactive) | > 100 µM (inactive)
CCOC(=O)/C=C/n1c2ccccc2c(=O)c2cc(OC)ccc21 | 69.7 µM (inactive) | 65.2 µM (inactive) | > 100 µM (inactive) | > 100 µM (inactive) | 87.5 µM (inactive) | – | 48.5 µM (inactive) | > 100 µM (inactive) | > 100 µM (inactive)
COC(=O)C1=C(OC)c2cc3c(cc2C(c2cc(OC)c(OC)c(OC)c2)C1C(=O)OC)OCO3 (stereo not drawn) | > 100 µM (inactive) | > 100 µM (inactive) | > 100 µM (inactive) | > 100 µM (inactive) | – | > 100 µM (inactive) | > 100 µM (inactive) | > 100 µM (inactive) | > 100 µM (inactive)
C/C(=N\NC(=S)Nc1ccc([N+](=O)[O-])cc1S(=O)(=O)O)c1ccccn1 | 41.2 µM (inactive) | 39.7 µM (inactive) | 61 µM (inactive) | 43.8 µM (inactive) | > 100 µM (inactive) | > 100 µM (inactive) | 30 µM (inactive) | 40.1 µM (inactive) | 26.3 µM (inactive)
O=C(Cc1ccccc1)NN1C(=O)C(Cl)C1c1ccc(Cl)cc1 (stereo not drawn) | > 100 µM (inactive) | > 100 µM (inactive) | > 100 µM (inactive) | – | – | > 100 µM (inactive) | > 100 µM (inactive) | > 100 µM (inactive) | > 100 µM (inactive)
C/N=c1\ss/c(=N\C(=S)N(C)C)n1-c1ccccc1 | > 100 µM (inactive) | > 67.8 µM (inactive) | > 100 µM (inactive) | > 100 µM (inactive) | – | 46 µM (inactive) | – | > 100 µM (inactive) | > 100 µM (inactive)
